From patent US5210193A, “Piperazine derivatives” (American Cyanamid Company, priority 1990, dated 1993)

Legend:
[1] = system: Staphylococcus aureus Smith; test: in vivo antibacterial activity of Example 131, survival of infected mice (Table IV); set-up: species or system Charles River CD-1 female mice
Procedure: (§1) The in vivo antibacterial activity of 1-cyclopropyl-6-fluoro-7-[3-(fluoromethyl)-1-piperazinyl]-1,4-dihydro-4-oxo-3-quinolinecarboxylic acid (Example 131) was established in the following test.
(§2) Charles River CD-1 female mice, weighing 20±2 g were infected with either Staphylococcus aureus Smith or Escherichia coli 311. A single oral or subcutaneous dose of 1-cyclopropyl-6-fluoro-7-[3-(fluoromethyl)-1-piperazinyl]-1,4-dihydro-4-oxo-3-quinolinecarboxylic acid was administered 1/2 hour after infection. […]

Escherichia coli 311 = test: as above; set-up: species or system Charles River CD-1 female mice
Procedure: as §1, §2

[2] = subcutaneous, 0.5 mg/kg single dose
[3] = subcutaneous, 1 mg/kg single dose
[4] = subcutaneous, 2 mg/kg single dose

O=C(O)c1cn(C2CC2)c2cc(N3CCNC(CF)C3)c(F)cc2c1=O (stereo not drawn) [Example 131, 1-Cyclopropyl-6-fluoro-7-[3-(fluoromethyl)-1-piperazinyl]-1,4-dihydro-4-oxo-3-quinolinecarboxylic acid] was tested, and the “Survival Ratio 7 Days After Infection” value ([1]; oral, 1 mg/kg single dose) was 0/15, the “Survival Ratio 7 Days After Infection” value ([1]; oral, 2 mg/kg single dose) was 2/15 and the “Survival Ratio 7 Days After Infection” value ([1]; oral, 4 mg/kg single dose) was 10/15. The “Survival Ratio 7 Days After Infection” value ([1]; oral, 8 mg/kg single dose) was 15/15, the “Survival Ratio 7 Days After Infection” value [1, 2] was 0/15 and the “Survival Ratio 7 Days After Infection” value [1, 3] was 2/15. The “Survival Ratio 7 Days After Infection” value [1, 4] was 14/15, the “Survival Ratio 7 Days After Infection” value ([1]; subcutaneous, 4 mg/kg single dose) was 15/15 and the “Survival Ratio 7 Days After Infection” value (Escherichia coli 311; oral, 0.12 mg/kg single dose) was 0/10. For the same compound, the “Survival Ratio 7 Days After Infection” value (Escherichia coli 311; oral, 0.25 mg/kg single dose) was 1/10, the “Survival Ratio 7 Days After Infection” value (Escherichia coli 311; oral, 0.5 mg/kg single dose) was 3/10 and the “Survival Ratio 7 Days After Infection” value (Escherichia coli 311; oral, 1 mg/kg single dose) was 7/10. For the same compound, the “Survival Ratio 7 Days After Infection” value (Escherichia coli 311; oral, 2 mg/kg single dose) was 10/10, the “Survival Ratio 7 Days After Infection” value (Escherichia coli 311; subcutaneous, 0.12 mg/kg single dose) was 0/10 and the “Survival Ratio 7 Days After Infection” value (Escherichia coli 311; subcutaneous, 0.25 mg/kg single dose) was 2/10. For the same compound, the “Survival Ratio 7 Days After Infection” value (Escherichia coli 311; [2]) was 7/10, the “Survival Ratio 7 Days After Infection” value (Escherichia coli 311; [3]) was 10/10 and the “Survival Ratio 7 Days After Infection” value (Escherichia coli 311; [4]) was 10/10.
